Blank lines part the entries; values can stand above or below the compound they belong to. Active and inactive are the calls of the source. The calls are words filed in the database; no cut-off is given here.
How the values were obtained:
Rattus norvegicus [1] = assay: Compound was tested in vivo for 5-HTP accumulation in hemispheres (cortex) against reserpine-pretreated rats;I= inactive at the highest dose tested (50).; assay type: functional, organism-based
Rattus norvegicus [2] = assay: The Compound was tested in vivo for DOPA accumulation in limbic system against reserpine-pretreated rats; P=significant partial reduction only at the highest dose tested (50).; assay type: functional, organism-based
Rattus norvegicus [3] = assay: Compound was tested in vivo for 5-HTP accumulation in limbic system against reserpine-pretreated rats;I=inactive at the highest dose tested (50).; assay type: functional, organism-based
Rattus norvegicus [4] = assay: Compound was tested in vivo for DOPA accumulation in corpus striatum against reserpine-pretreated rats; P=significant partial reduction only at the highest dose tested (50).; assay type: functional, organism-based
Rattus norvegicus [5] = assay: Compound was tested in vivo for 5-HTP accumulation in corpus striatum against reserpine-pretreated rats;I= inactive at the highest dose tested (50).; assay type: functional, organism-based
Rattus norvegicus [6] = assay: The Compound was tested in vivo for DOPA accumulation in hemispheres (cortex) against reserpine-pretreated rats;I= inactive at the highest dose tested (50).; assay type: functional, organism-based
Rattus norvegicus [7] = assay: Compound was tested in vivo for DOPA accumulation in corpus striatum against reserpine-pretreated rats;P= significant partial reduction only at the highest dose tested (50).; assay type: functional, organism-based
Rattus norvegicus [8] = assay: Compound was tested in vivo for 5-HTP accumulation in limbic system against reserpine-pretreated rats;P= significant partial reduction only at the highest dose tested (50).; assay type: functional, organism-based
Rattus norvegicus [9] = assay: Compound was tested in vivo for 5-HTP accumulation in limbic system against reserpine-pretreated rats; P=significant partial reduction only at the highest dose tested (50).; assay type: functional, organism-based
Rattus norvegicus [10] = assay: The Compound was tested in vivo for DOPA accumulation in hemispheres (cortex) against reserpine-pretreated rats; P=significant partial reduction only at the highest dose tested (50).; assay type: functional, organism-based
[11] = biological target: 5-hydroxytryptamine receptor 1B (Homo sapiens, UniProt P28222); assay: Binding affinity against 5-hydroxytryptamine 1D receptor beta expressed in CHO-K1 cells, using [3H]5-HT as the radioligand.; assay type: cell-based; settings: read-out: Ki
Rattus norvegicus [12] = assay: Compound was tested in vivo for 5-HTP accumulation in hemispheres (cortex) against reserpine-pretreated rats; P=significant partial reduction only at the highest dose tested (50).; assay type: functional, organism-based
Rattus norvegicus [13] = assay: Compound was tested in vivo for 5-HTP accumulation in corpus striatum against reserpine-pretreated rats; P=significant partial reduction only at the highest dose tested (50).; assay type: functional, organism-based
[14] = biological target: 5-hydroxytryptamine receptor 1D (Homo sapiens, UniProt P28221); assay: Binding affinity against 5-hydroxytryptamine 1D receptor alpha expressed in CHO-K1 cells, using [3H]-5-HT as the radioligand.; assay type: cell-based; settings: read-out: Ki
D(2) dopamine receptor [15] = biological target: T1, D(2) dopamine receptor (Rattus norvegicus, UniProt P61169); settings: cho-k1
[16] = biological target: T2, 5-hydroxytryptamine receptor 1A (Rattus norvegicus, UniProt P19327); assay: Binding affinity against 5-hydroxytryptamine 1A receptor from CHO-K1 cells, using [3H]8-OH-DPAT as the radioligand.; assay type: cell-based
T2 sequence (P19327 whole entry): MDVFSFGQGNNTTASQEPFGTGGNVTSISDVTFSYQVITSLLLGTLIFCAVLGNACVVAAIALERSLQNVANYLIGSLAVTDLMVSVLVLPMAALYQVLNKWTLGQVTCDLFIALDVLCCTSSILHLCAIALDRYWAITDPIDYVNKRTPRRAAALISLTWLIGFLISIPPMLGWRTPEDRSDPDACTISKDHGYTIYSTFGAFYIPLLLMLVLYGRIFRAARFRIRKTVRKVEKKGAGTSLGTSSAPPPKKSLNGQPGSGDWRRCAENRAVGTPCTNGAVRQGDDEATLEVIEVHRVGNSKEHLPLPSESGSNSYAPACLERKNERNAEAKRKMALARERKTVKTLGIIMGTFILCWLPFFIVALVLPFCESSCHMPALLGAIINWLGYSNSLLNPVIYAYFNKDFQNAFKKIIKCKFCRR

[17] = tmax in hours at a iv dose of 4.0(pmol/g/h).; assay type: ADME, organism-based; settings: in vivo
[18] = Ratio of the 5-HTP accumulation decrease in limbic regions after oral and subcutaneous administration in rat.; assay type: functional, Limbic system
Rattus norvegicus [19] = assay: The Compound was tested in vivo for DOPA accumulation in hemispheres (cortex) against reserpine-pretreated rats; I= inactive at the highest dose tested (12.5).; assay type: functional, organism-based
[20] = Bioavailability in rat plasma following iv/po dose; assay type: ADME, organism-based
[21] = tmax in hours at a po dose of 10.0(pmol/g/h).; assay type: ADME, organism-based; settings: in vivo, 10 pmol/g/h
Rattus norvegicus [22] = assay: Bioavailability in male Sprague-Dawley rats, after the po administration at a dose of 10.0(pmol/g/h); assay type: ADME, organism-based; settings: in vivo
Rattus norvegicus [23] = assay: Bioavailability in male Sprague-Dawley rats, after the iv administration at a dose of 4.0(pmol/g/h); assay type: ADME, organism-based; settings: in vivo
Rattus norvegicus [24] = assay: compound was tested in vivo for DOPA accumulation in corpus striatum against reserpine-pretreated rats; assay type: functional
D(3) dopamine receptor [25] = biological target: T3, D(3) dopamine receptor (Rattus norvegicus, UniProt P19020); assay: Binding affinity against Dopamine receptor D3 from CHO-K1 cells, using [3H]spiperone as the radioligand.; assay type: cell-based; settings: read-out: Ki
Rattus norvegicus [26] = assay: The compound was tested in vivo for DOPA accumulation in hemispheres (cortex) against reserpine-pretreated rats;I= inactive at the highest dose tested; assay type: functional, organism-based
Rattus norvegicus [27] = assay: The Compound was tested in vivo for DOPA accumulation in limbic system against reserpine-pretreated rats; P=significant partial reduction only at the highest dose tested (3.1).; assay type: functional, organism-based
Rattus norvegicus [28] = assay: The Compound was tested in vivo for DOPA accumulation in hemispheres (cortex) against reserpine-pretreated rats; I=inactive at the highest dose tested (3.1).; assay type: functional, organism-based
D(2) dopamine receptor [29] = biological target: T1, D(2) dopamine receptor; assay: Binding affinity against Dopamine receptor D2 expressed in CHO-K1 cells, using [3H]U-86170 as the radioligand.; assay type: cell-based
Rattus norvegicus [30] = assay: Compound was tested in vivo for DOPA accumulation in corpus striatum against reserpine-pretreated rats;I= inactive at the highest dose tested (3.1).; assay type: functional, organism-based
D(3) dopamine receptor [31] = biological target: T3, D(3) dopamine receptor; assay: Binding affinity against Dopamine receptor D3 expressed in CHO-K1 cells, using [3H]spiperone as the radioligand.; assay type: cell-based
Rattus norvegicus [32] = assay: In vivo for 5-HTP accumulation in hemispheres (cortex) against reserpine-pretreated rats.; assay type: functional
Rattus norvegicus [33] = assay: Bioavailability in male Sprague-Dawley rats, after the iv administration at a dose of 54.0(pmol/g/h); assay type: ADME, organism-based; settings: in vivo
Rattus norvegicus [34] = assay: The Compound was tested in vivo for DOPA accumulation in hemispheres (cortex) against reserpine-pretreated rats;I= inactive at the highest dose (12.5); assay type: functional, organism-based
[35] = tmax in hours at a iv dose of 54.0(pmol/g/h).; assay type: ADME, organism-based; settings: in vivo
[36] = tmax in hours at a dose of 10.0(pmol/g/h).; assay type: ADME
Rattus norvegicus [37] = assay: In vivo for 5-HTP accumulation in corpus striatum against reserpine-pretreated rats.; assay type: functional
Rattus norvegicus [38] = assay: In vivo for DOPA accumulation in corpus striatum against reserpine-pretreated rats.; assay type: functional
D(2) dopamine receptor [39] = biological target: T1, D(2) dopamine receptor; assay: Binding affinity against Dopamine receptor D2 from CHO-K1 cells, using [3H]U-86,170 as the radioligand.; assay type: cell-based
Rattus norvegicus [40] = assay: In vivo for 5-HTP accumulation in limbic system against reserpine-pretreated rats.; assay type: functional
Rattus norvegicus [41] = assay: In vivo for DOPA accumulation in limbic system against reserpine-pretreated rats.; assay type: functional

T1 sequence (P61169 whole entry): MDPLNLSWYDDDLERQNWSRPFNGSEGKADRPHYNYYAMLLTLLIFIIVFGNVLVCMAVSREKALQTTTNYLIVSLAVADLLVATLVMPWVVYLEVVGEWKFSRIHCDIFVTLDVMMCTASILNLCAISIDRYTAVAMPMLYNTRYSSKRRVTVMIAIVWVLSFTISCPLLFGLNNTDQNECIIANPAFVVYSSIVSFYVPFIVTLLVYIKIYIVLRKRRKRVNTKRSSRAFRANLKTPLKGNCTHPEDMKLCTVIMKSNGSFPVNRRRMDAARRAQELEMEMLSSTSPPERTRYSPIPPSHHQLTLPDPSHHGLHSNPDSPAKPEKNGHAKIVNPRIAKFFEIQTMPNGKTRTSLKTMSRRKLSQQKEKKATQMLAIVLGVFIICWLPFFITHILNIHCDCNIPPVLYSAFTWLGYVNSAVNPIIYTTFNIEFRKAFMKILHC
T3 sequence (P19020 whole entry): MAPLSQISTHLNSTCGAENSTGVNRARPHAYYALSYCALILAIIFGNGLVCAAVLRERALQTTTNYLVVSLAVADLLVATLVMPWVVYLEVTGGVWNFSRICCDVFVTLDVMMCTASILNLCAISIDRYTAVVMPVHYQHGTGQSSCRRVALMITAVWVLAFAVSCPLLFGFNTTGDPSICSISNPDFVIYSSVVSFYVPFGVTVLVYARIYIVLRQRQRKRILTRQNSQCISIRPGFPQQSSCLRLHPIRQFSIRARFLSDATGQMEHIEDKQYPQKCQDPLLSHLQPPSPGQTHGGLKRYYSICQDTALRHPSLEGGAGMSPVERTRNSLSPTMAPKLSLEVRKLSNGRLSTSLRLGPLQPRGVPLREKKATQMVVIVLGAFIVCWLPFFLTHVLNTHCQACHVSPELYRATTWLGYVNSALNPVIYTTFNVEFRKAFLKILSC
Chain of 5-hydroxytryptamine receptor 1D (P28221 whole entry): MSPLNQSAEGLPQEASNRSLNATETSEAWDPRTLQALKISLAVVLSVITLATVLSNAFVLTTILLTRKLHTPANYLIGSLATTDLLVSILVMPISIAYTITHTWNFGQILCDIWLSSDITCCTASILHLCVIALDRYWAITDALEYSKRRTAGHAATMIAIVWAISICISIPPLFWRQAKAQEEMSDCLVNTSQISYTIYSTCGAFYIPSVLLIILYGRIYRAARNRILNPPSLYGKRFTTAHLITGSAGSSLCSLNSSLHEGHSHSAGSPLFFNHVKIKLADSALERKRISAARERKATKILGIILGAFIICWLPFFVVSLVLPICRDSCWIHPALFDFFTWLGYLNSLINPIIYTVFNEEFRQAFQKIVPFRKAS
Chain of 5-hydroxytryptamine receptor 1B (P28222 whole entry): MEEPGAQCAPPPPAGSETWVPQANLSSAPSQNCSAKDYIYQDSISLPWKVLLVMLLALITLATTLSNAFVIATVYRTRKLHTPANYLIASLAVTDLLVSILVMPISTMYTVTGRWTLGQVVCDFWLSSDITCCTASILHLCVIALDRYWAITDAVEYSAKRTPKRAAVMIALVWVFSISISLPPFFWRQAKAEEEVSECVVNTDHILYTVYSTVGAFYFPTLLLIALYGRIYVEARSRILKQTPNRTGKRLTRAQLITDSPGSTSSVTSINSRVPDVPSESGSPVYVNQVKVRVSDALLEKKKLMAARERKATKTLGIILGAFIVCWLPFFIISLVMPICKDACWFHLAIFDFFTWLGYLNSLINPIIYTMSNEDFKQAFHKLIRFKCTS

Compound: CCCN(CCC)C1CCc2ccc3c(c2C1)N(C=O)CC3 (stereo not drawn)
ED50 (Rattus norvegicus [1]): inactive
ED50 (Rattus norvegicus [2]): Weak activity
ED50 (Rattus norvegicus [3]): inactive
ED50 (Rattus norvegicus [4]): Weak activity
ED50 (Rattus norvegicus [5]): inactive
ED50 (Rattus norvegicus [6]): inactive

Compound: CCCN(CCC)C1CCc2ccc3cc[nH]c3c2C1 (stereo not drawn)
ED50 (Rattus norvegicus [1]): inactive
ED50 (Rattus norvegicus [2]): Weak activity
ED50 (Rattus norvegicus [7]): Weak activity
ED50 (Rattus norvegicus [5]): inactive
ED50 (Rattus norvegicus [8]): Weak activity
ED50 (Rattus norvegicus [6]): inactive

Ki [11]: 552 nM
Ki [14]: 87 nM
Ki (D(2) dopamine receptor [15]): Not Active
Ki [16]: 24 nM
Compound: CCCN(CCC)C1CCc2ccc3[nH]cc(C(=O)C(N)=O)c3c2C1 (stereo not drawn)
ED50 (Rattus norvegicus [9]): Weak activity
ED50 (Rattus norvegicus [10]): Weak activity
ED50 (Rattus norvegicus [12]): Weak activity
ED50 (Rattus norvegicus [2]): Weak activity
ED50 (Rattus norvegicus [7]): Weak activity
ED50 (Rattus norvegicus [13]): Weak activity

Compound: CCCN(CCC)[C@@H]1CCc2ccc3[nH]c(C#N)cc3c2C1 [U-92,016-A]
Tmax [17]: 4 h
ED50 ratio [18]: 38
ED50 (Rattus norvegicus [19]): inactive
bioavailability [20]: 63%
Tmax [21]: 75 h
AUC (Rattus norvegicus [22]): 2857 pM ml-1
AUC (Rattus norvegicus [23]): 1817 pM ml-1

Compound: CCCN(CCC)C1CCc2ccc3[nH]cc(C=O)c3c2C1 (stereo not drawn)
ED50 (Rattus norvegicus [24]): 3.34 µmol/kg
Ki (D(3) dopamine receptor [25]): 70 nM
Ki [11]: 364 nM
Ki [14]: 173 nM
ED50 (Rattus norvegicus [26]): inactive

Compound: CCCN(CCC)[C@@H]1CCc2ccc3[nH]cc(C#N)c3c2C1
Ki [11]: 26 nM
ED50 (Rattus norvegicus [27]): Weak activity
ED50 (Rattus norvegicus [28]): inactive
Ki (D(2) dopamine receptor [29]): 22 nM
ED50 (Rattus norvegicus [30]): inactive
Ki [14]: 6.7 nM
Ki (D(3) dopamine receptor [31]): 45 nM
Ki [16]: 0.8 nM

Compound: CCCN(CCC)C1CCc2cc(F)c3[nH]cc(C#N)c3c2C1 (stereo not drawn)
ED50 (Rattus norvegicus [32]): 0.46 µmol/kg
AUC (Rattus norvegicus [33]): 238 pM ml-1
Ki (D(3) dopamine receptor [25]): 63 nM
ED50 (Rattus norvegicus [34]): inactive
Tmax [35]: 2 h
Ki [11]: 121 nM
Tmax [36]: 33 h
ED50 (Rattus norvegicus [37]): 0.43 µmol/kg
bioavailability [20]: 8.1%
ED50 (Rattus norvegicus [38]): 2.1 µmol/kg
Ki (D(2) dopamine receptor [39]): 72 nM
ED50 (Rattus norvegicus [40]): 0.52 µmol/kg
AUC (Rattus norvegicus [22]): 48 pM ml-1
Ki [14]: 8.6 nM
ED50 (Rattus norvegicus [41]): 0.55 µmol/kg
Ki [16]: 2.3 nM

From ChEMBL document CHEMBL1128401, “Structure-activity relationships in the 8-amino-6,7,8,9-tetrahydro-3H-benz[e]indole ring system. 1. Effects of substituents in the aromatic system on serotonin and dopamine receptor subtypes” (J Med Chem, 1995)
